US11674952B2, “Embryonic cell-based therapeutic candidate screening systems, models for Huntington's Disease and uses thereof” (The Rockefeller University, priority 2016, dated 2023)
“Also recorded” adds a separate entry of the source.

System: RUES2-Q150 cells
Assay: Germ layer micropattern screen: BMP4-differentiated hESC colonies, reversion of the HD-dependent micropattern signature
Format: cell-based, human
Conditions: kinetin 1 μM for 2-24 hours prior to BMP4 addition
Text: Micropattern cultures were established according to methods described in Warmflash et al., Nature Methods. 2014 August: 11(8):847-854. This procedure is briefly described in Materials and Methods.
Cells confined to circular micropatterns and differentiated with BMP4 produce an ordered array of germ layers along the radial axis of the colony. This order results from self-organized signaling which confines response to the BMP4 to the colony border while inducing a broader gradient of Activin/Nodal signaling to pattern mesendodermal fates. Control of fates is established from the border of the colony so that as colony size is reduced the central fates are lost. Thus, given minimal geometric and signaling cues, hESCs will self-organize to generate embryonic patterns such as those of the human gastrula.
The Applicants next applied micropattern technology to the isogenic hESC lines for Huntington's Disease. […]
The spatial expression of germ markers Sox2, Bra, and Cdx2 was compared between RUES2 and RUES2-Q150 cells (FIG. 6). […] Tri dimensional geometry was evaluated by first generating images of cells at different focal planes known as “Z-stacks”. […]

SMILES: c1coc(CNc2ncnc3[nH]cnc23)c1 [kinetin]
- rescue of HD-dependent micropattern signature (SOX2+ area; Sox2 and Bra/Cdx2 territories): reduced or reverted HD-dependent micropattern signature; also recorded: restore the HD-dependent micropattern signature; also recorded: at least partially rescued; also recorded: partial but significant rescue of phenotype
- rescue of cell number phenotype (total number of cells per micropattern, cell density): restored the cell density; also recorded: restored the cell number phenotype; also recorded: rescues the cell number phenotype
